Molecular target: T1, Fascin1 (Homo sapiens, UniProt Q16658)
T1 construct: gene FSCN1; full-length human Fascin1; in-house protein from pGEX-6P-2A (N-terminal GST, 3C site) in E. coli BL21-gold(DE3), GST cleaved with PreScission
Experiment: intrinsic fluorescence titration
Assay type: binding

`Cc1nnc(C(=O)NC(C)(C)c2nc(C(=O)NCc3ccc(F)cc3)c(O)c(=O)n2C)o1` [raltegravir] was tested, and the Kd was 180 ± 10 µM.
